Legend:
[1] = test system: EAE in C57BL6 mice immunized with MOG35-55; experiment: Example 3: BN201 and DMF combination, progression of chronic EAE; format: in vivo, mouse; settings: BN201 25 mg/kg i.p. alone (suboptimal), once a day six days per week from day 15
Experimental: Effect in the animal model of MS (i.e., EAE in C57BL6 mice immunized with MOG35-55), similar to Example 2.
Starting on day 15, mice were administered: • dimethyl fumarate (DMF) (group A, 10 mice), • BN201 (group B, 10 mice) • a combination thereof (group C, 10 mice) once a day for six days per week at suboptimal dosages (10 mg/kg for DMF, 25 mg/kg for BN201).
DMF was administered orally with a rigid cannula in a saline vehicle at a volume of 10 mL/kg, while BN201 was administered via i.p. injection in a saline vehicle at a volume of 5 mL/kg. Control mice received vehicle only via both oral and i.p. injection (group D, 10 mice) or nothing at all (group E, 2 mice).
The objective of the study was to evaluate the efficacy and safety of combination therapy with suboptimal doses of BN201 (25 mg/kg) and dimethyl-fumarate (DMF) (10 mg/kg) in the progression of chronic EAE in mice.
During a one week acclimation period starting on day −7, mice were distributed based on body weight stratification into different experimental groups. On day 0, mice were immunized subcutaneously in both hind pads with 150 μg of MOG peptide 35-55 (Spikem, Firenze) emulsified with 50 μg of Mycobacterium tuberculosis (H37Ra strain; Difco, Detroit, MI) in incomplete Freund's adjuvant (IFA). […]

[2] = test system: experimental autoimmune encephalomyelitis (EAE) mouse model; experiment: Study EAE-C05: clinical score in EAE mouse model with active comparators; format: in vivo; settings: 100 mg/kg daily, after 5 days of treatment
Experimental: A second experiment (Study EAE-C05) was then performed using the same mouse model.
Study EAE-C05: In addition to two dose levels of BN201 and a placebo-treated group (pathological control group), the study design introduced two active comparators, dimethyl fumarate (DMF) and fingolimod (FTY720), and a sham group (group in which animals were manipulated as the pathological group but without MOG injection). All groups were administered daily. • sham control non-diseased placebo-treated animals (healthy control group); • EAE-affected placebo-treated animals (pathological control group); • EAE-affected animals treated orally with 15 mg/kg of DMF; • EAE-affected animals treated with 2 mg/kg of FTY720; • EAE-affected animals treated with BN201 at 50 or 100 mg/kg.
Clinical scores were assigned to assess disease severity using the following scale: 0=normal; 0.5=Partial tail paralysis; 1=Complete tail paralysis; 1.5=Tail paralysis and loss of righting reflex; 2=Partial hind limb paralysis/paralysis of one limb; 2.5=One limb paralysis and partial loss of activity of one other limb; 3=Bilateral hind limb paralysis; 4=Moribund; 5=exitus.
Therapeutic treatment was initiated on day 12 or 13, once each mouse started showing complete tail paralysis (Score 1).

[3] = test system: human neuroblastoma cell line SH-SY5Y; experiment: Neuroprotection against H2O2 oxidative stress, MTT assay; format: cell-based; settings: 1 hour preincubation at 0.03-40 μM, then H2O2 15 μM 30 minutes
Experimental: The objective of the study was to test the possible synergistic effect of the BN201-monomethylfumarate salt in a neuroprotective assay. Thus, BN201-monomethylfumarate salt obtained as indicated in example 5, was tested for its ability to protect the human neuroblastoma cell line SH-SY5Y against death induced by oxidative stress (i.e., hydrogen peroxide (H202)) using an MTT (3-(4,5-dimethylthiazol-2-yl)-2,5-diphenyltetrazolium bromide) cell proliferation assay.
SH-SY5Y cells were cultivated in 50% Eagle's minimum essential medium (EMEM), 50% Ham's F12 Nutrient Mixture, 10% fetal bovine serum (FBS), 2 mM L-Glu, and 1% penicillin/streptomycin. All of the cell cultures were maintained in a humidified incubator at 5% CO2 and at 37° C. SH-SY5Y cells were preincubated for 1 hour with BN201 alone, monomethyl fumarate alone, or BN201-monomethylfumarate salt at various concentrations (n=5; concentrations: 0.03 μM, 0.1 μM, 0.3 μM, 0.5 μM, 1 μM, 3 μM, 5 μM, 10 μM, 20 μM, 40 μM) and then H2O2 (15 μM) was added to induce stress. Preincubation with sodium pyruvate (10 mM) was used as a positive control. After 30 minutes of H2O2 incubation, the medium was changed and thiazolyl blue tetrazolium bromide (MTT; Sigma Aldrich; stock concentration 10 mg/ml) was added to each well at the final concentration of 0.5 mg/ml. After 2 hours of MTT incubation the cell medium was removed, and cells were resuspended in pure dimethyl sulfoxide (DMSO). Cell viability was determined by reading the absorbance at 570 nm. Each experiment was performed in quintuplicate.

CC(C)CN(CC(=O)N(CCCN1CCCC1=O)CC(N)=O)C(=O)CNCCc1ccccc1F [BN201, [N-(2-(2′-Fluorophenyl)ethyl)glycyl]-[N-(2-methylpropyl)glycyl]-N-[3-(2′-oxopyrrolidinyl)-propyl]glycinamide]
course of EAE (clinical score) versus placebo [1]: suffered EAE similar to those mice treated with placebo
clinical score compared to pathological control group [2]: significantly lower
cell viability as a percentage compared to the control (protection from death induced by oxidative stress) [3]: partially rescued neurons from death induced by oxidative stress

Source: patent US20260232752A1, “COMBINATION THERAPY METHODS, COMPOSITIONS AND KITS” (Accure Therapeutics, S.L., priority 2019, published 2026)
